In publication PMC6790247 (Journal of Insect Science, 2019):

Experiments:
Format in all cases: biochemical
nlGSTE [1] = molecular target: T1, nlGSTE (Nilaparvata lugens, UniProt J9Q4G5); assay: inhibition of CDNB conjugation, spectrophotometry; details: read-out: % remaining activity at 0.1 mM
T1 sequence (J9Q4G5 1-217): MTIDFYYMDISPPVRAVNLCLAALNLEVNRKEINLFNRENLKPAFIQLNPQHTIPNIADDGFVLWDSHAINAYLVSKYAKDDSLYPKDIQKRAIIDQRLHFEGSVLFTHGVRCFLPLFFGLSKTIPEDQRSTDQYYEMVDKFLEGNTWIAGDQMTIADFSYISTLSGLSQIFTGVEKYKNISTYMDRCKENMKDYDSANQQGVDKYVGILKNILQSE

nlGSTE [2] = molecular target: T1, nlGSTE; assay: inhibition of CDNB conjugation, spectrophotometry; details: substrates CDNB and GSH; several inhibitor concentrations
nlGSTE [3] = molecular target: T1, nlGSTE; assay: spectrophotometry at […] nm, double-reciprocal plot; details: read-out: WT; 5 mM GSH, 20 mM Tris-HCl pH 8.0, 30 °C
nlGSTE [4] = molecular target: T2, nlGSTE (Nilaparvata lugens, UniProt J9Q4G5, R112A); assay: spectrophotometry at […] nm, double-reciprocal plot; details: read-out: R112A; 5 mM GSH, 20 mM Tris-HCl pH 8.0, 30 °C
T2 sequence (J9Q4G5 1-217 R112A): T1 sequence (J9Q4G5 1-217)

nlGSTE [5] = molecular target: T3, nlGSTE (Nilaparvata lugens, UniProt J9Q4G5, F118L); assay: spectrophotometry at […] nm, double-reciprocal plot; details: read-out: F118L; 5 mM GSH, 20 mM Tris-HCl pH 8.0, 30 °C
T3 sequence (J9Q4G5 1-217 F118L): T1 sequence (J9Q4G5 1-217)

nlGSTE [6] = molecular target: T4, nlGSTE (Nilaparvata lugens, UniProt J9Q4G5, F107A); assay: spectrophotometry at […] nm, double-reciprocal plot; details: read-out: F107A; 5 mM GSH, 20 mM Tris-HCl pH 8.0, 30 °C
T4 sequence (J9Q4G5 1-217 F107A): T1 sequence (J9Q4G5 1-217)

nlGSTE [7] = molecular target: T5, nlGSTE (Nilaparvata lugens, UniProt J9Q4G5, F119A); assay: spectrophotometry at […] nm, double-reciprocal plot; details: read-out: F119A; 5 mM GSH, 20 mM Tris-HCl pH 8.0, 30 °C
T5 sequence (J9Q4G5 1-217 F119A): T1 sequence (J9Q4G5 1-217)

CNC(=O)Oc1cccc2c1OC(C)(C)O2 [bendiocarb]
remaining activity at 100 µM (nlGSTE [1]): 36%

CC1(C)C(C=C(Cl)Cl)C1C(=O)OCc1cccc(Oc2ccccc2)c1 (stereo not drawn) [permethrin]
remaining activity (nlGSTE [2]): nlGSTE activity was affected by permethrin, bendiocarb, diazinon, and chlorfenapyr

O=[N+]([O-])c1ccc(Cl)c([N+](=O)[O-])c1 [CDNB, 1-chloro-2,4-dinitrobenzene]
Km (nlGSTE [3]): 2.1 ± 0.165 mM | Km (nlGSTE [4]): 8.7 ± 0.666 mM | Km (nlGSTE [5]): 4.2 ± 0.865 mM | Km (nlGSTE [6]): 3.1 ± 0.367 mM | Km (nlGSTE [7]): 5 ± 0.575 mM

CCOP(=S)(OCC)Oc1cc(C)nc(C(C)C)n1 [diazinon]
remaining activity (nlGSTE [2]): nlGSTE activity was affected by permethrin, bendiocarb, diazinon, and chlorfenapyr

CCOCn1c(-c2ccc(Cl)cc2)c(C#N)c(Br)c1C(F)(F)F [chlorfenapyr]
remaining activity at 100 µM (nlGSTE [1]): 84%
